Columns and labels:
[1] = tested on: Pimephales promelas; assay: 96 h LC50 (-log10 mol/L); higher = more toxic
[2] = tested on: Tetrahymena pyriformis; assay: 48 h IGC50 (-log10 mol/L); higher = more toxic

Compound	96 h LC50 (-log10 mol/L) [1]	48 h IGC50 (-log10 mol/L) [2]
O=S(Cc1ccccc1)Cc1ccccc1	3.46	
CC(C)(C)c1ccc(C(N)=O)cc1	3.75	
C=C(C)C1CC=C(C)CC1 (centres undefined)	2.15	
c1ccc(Nc2ccccc2)cc1	4.65	
COC(=O)c1ccc(C(=O)OC)c(N)c1	4.37	
C#CC1(O)CCCCC1	2.69	
CCNc1nc(NC(C)(C)C)nc(OC)n1	3.66	
O=C(O)CCCOc1ccc(Cl)cc1Cl	4.14	
CC12CCC(C(Br)C1=O)C2(C)C (centres undefined)	3.53	
CCOP(=S)(OCC)Oc1nc(Cl)c(Cl)cc1Cl	6.36	
C1N2CN3CN1CN(C2)C3	0.449	
CCN(CC)c1ccc(C=O)cc1	3.87	
COc1ccc(C=O)c(OC)c1	3.92	
CC(Cl)(Cl)C(=O)O	2.69	
O=C1c2ccccc2C(=O)N1SC(Cl)(Cl)Cl	6.21	
Cc1c(Cl)cccc1NC=O	3.56	
Cc1ccc(Cl)c(Cl)c1	4.74	
O=C1C2CC3CC(C2)CC1C3	3.39	
CC(=O)Nc1ccccc1O	3.66	
O=C(Oc1ccccc1)c1ccccc1O	5.28	
Nc1ccc(Br)cn1	2.99	
CC(C)(O)C(Cl)(Cl)Cl	3.12	
COCCCNCc1cc(OC)c(OC)c(OC)c1	3.3	
CCCCO	1.59	
CCCSP(=O)(OCC)Oc1ccc(Br)cc1Cl (centres undefined)	6.64	
Cc1nnc(N)nc1C	2.12	
O=Cc1cccc(Oc2ccc(Cl)c(Cl)c2)c1	5.95	

Compound	96 h LC50 (-log10 mol/L) [1]	48 h IGC50 (-log10 mol/L) [2]
CC(N)CN (centres undefined)	1.82	
CC(C)(C)CN	2.26	
C=CCC1=C(C)[C@@H](OC(=O)[C@@H]2[C@@H](C=C(C)C)C2(C)C)CC1=O	6.67	
CN(C)C(=O)Nc1ccc(Cl)c(Cl)c1	4.21	
COc1ccc(OC)c(C(=O)CBr)c1	6.65	
C1CN2CCN1CC2	1.81	
ClC1=C(Cl)[C@]2(Cl)[C@H]3[C@H]([C@@H]4C=C[C@H]3C4)[C@@]1(Cl)C2(Cl)Cl	7.09	
CCC(C)C(C)C=O (centres undefined)	3.85	
COP(=S)(OC)Oc1ccc(Sc2ccc(OP(=S)(OC)OC)cc2)cc1	4.14	
CCOP(=S)(OCC)SC1OCCOC1SP(=S)(OCC)OCC (centres undefined)	4.66	
Cc1c(Cl)cc(C(C)(C)C)c(O)c1C(=O)Nc1ccc([N+](=O)[O-])cc1Cl	7.69	
COc1ccccc1C(N)=O	3.1	
C#CCCO	3.29	
C=C(Cl)Cl	2.86	
N#Cc1c(Cl)cccc1Cl	4.42	
CNC(=O)Oc1cccc2c1OC(C)(C)C2	5.4	
CCCCCCCCCCCCN	6.25	
CCCCCC(C)=O	2.94	
CCCCOC(=O)c1ccc(C(=O)OCCCC)cc1	5.67	
ClCc1ccccc1	4.4	
Nc1ccccc1C(=O)c1ccc(Cl)cc1	5.04	
Cc1ccc([N+](=O)[O-])c(N)c1	3.79	
C1COCCO1	0.931	
CC1(C)CC(=O)CC(=O)C1	1.09	
ClCCCCCCl	3.75	
S=c1[nH]c2cc(Cl)ccc2s1	4.8	
BrCC1CCCCO1 (centres undefined)	2.94	

Compound	96 h LC50 (-log10 mol/L) [1]	48 h IGC50 (-log10 mol/L) [2]
COP(=O)(OC)Oc1nc(Cl)c(Cl)cc1Cl	8.16	
COc1cccc(OC)c1C	3.88	
CCCCCCCCS(=O)C(C)Cc1ccc2c(c1)OCO2 (centres undefined)	5.64	
CCCCCCCCOC(=O)C(C)O (centres undefined)	3.93	
CC(C)C(C(=O)OC(C#N)c1cccc(Oc2ccccc2)c1)c1ccc(Cl)cc1 (centres undefined)	8.14	
O=[N+]([O-])c1ccc(O)cc1C(F)(F)F	4.51	
CCN(CCO)c1cccc(C)c1	3.53	
Cc1ccc(N(C)C)cc1	3.42	
C#CC(O)(c1ccccc1)c1ccccc1	4.27	
c1ccc2c(c1)CCC2	3.93	
CCC(Br)C(=O)OC (centres undefined)		4.02
CC(C)(O)C#CC(C)(C)O		1.42
N#Cc1c(O)ccc(O)c1C#N		2.56
CCCCCCCCCCC(=O)OC		4.42
OCCCCCCCl		2.73
CCCCCCCCCCC#N		4.65
CCOC(=O)C(Br)C(=O)OCC		5.21
O=[N+]([O-])c1ccc(Nc2ccccc2)cc1		4.89
CCC#CC(C)=O		4.32
O=C(CBr)Oc1ccc([N+](=O)[O-])cc1		4.81
Fc1nc(F)c(F)c(Br)c1F		2.87
Cc1ccnc(C)c1		2.35
Nc1c([N+](=O)[O-])cc(Cl)cc1[N+](=O)[O-]		4.15
CCCCCC#N		2.62
NCCCCO		2.02
